Earlier results, collected in patent US20250345461A1, “METHOD FOR REPAIRING HAIR CYCLE-RELATED GENES AND METHOD FOR TREATING HAIR CYCLE-RELATED DISEASES USING MIR-520D-5P” (LIVIUS PTE. LTD., priority 2021, published 2025).
Counter-ions that a name gives are not always drawn. Like-named read-outs stand apart in the source and are kept apart here.

In the case of CCCCC(CC)CNC(=N)NC(=N)NCCCCCCNC(=N)NC(=N)NCC(CC)CCCC (stereo not drawn) [Alexidine], the “Inhibition of cancer growth (concentration in known indications)” value (Inhibition of cancer growth) is given as “Inhibition of cancer growth: 1 mM”.

In the case of CC(C)NCC(O)COc1ccc(CCOCC2CC2)cc1 (stereo not drawn) [Betaxolol], the “Maximum effective blood concentration at the time of administration or concentration in an external preparation in known indications” value (“Maximum effective blood concentration” for short) (Essential hypertension, parenchymal renal hypertension, angina, glaucoma, ocular hypertension) is listed as “Administration: 41.8 ng/mL”.

For CC(C)NCC(O)COc1ccc(COCCOC(C)C)cc1 (stereo not drawn) [Bisoprolol, Bisoprolol fumarate], the “Maximum effective blood concentration” value (Chronic heart failure due to essential hypertension, angina, ischemic heart disease, and dilated cardiomyopathy) is given as “Administration: 100 ng/mL”.

For CCOc1nc2cccc(C(=O)O)c2n1Cc1ccc(-c2ccccc2-c2nnn[nH]2)cc1 [Candesartan], the “Maximum effective blood concentration” value (Hypertension) is given as “Administration: 75 ng/mL”.

In the case of CCCNC(=O)NS(=O)(=O)c1ccc(Cl)cc1 [Chlorpropamide], the “Maximum effective blood concentration” value (Type 2 diabetes) is given as “Administration: 30 μg/mL”.

For C=C(CC)C(=O)c1ccc(OCC(=O)O)c(Cl)c1Cl [Ethacrynic acid], the “Maximum effective blood concentration” value (Edematous diseases) is given as “Administration: 100 μM”.

For C=CCOc1ccccc1OCC(O)CNC(C)C (stereo not drawn) [Oxprenolol], the “Maximum effective blood concentration” value (Tachyarrhythmia, angina) is listed as “Administration: 30.18 μg/μL”.

In the case of CN[C@H](CC(C)C)C(=O)N[C@H]1C(=O)N[C@@H](CC(N)=O)C(=O)N[C@H]2C(=O)N[C@H]3C(=O)N[C@H](C(=O)N[C@H](C(=O)O)c4cc(O)cc(O)c4-c4cc3ccc4O)[C@H](O)c3ccc(c(Cl)c3)Oc3cc2cc(c3O[C@@H]2O[C@H](CO)[C@@H](O)[C@H](O)[C@H]2O[C@H]2C[C@](C)(N)[C@H](O)[C@H](C)O2)Oc2ccc(cc2Cl)[C@H]1O [Vancomycin], the “Maximum effective blood concentration” value (MRSA infection) is given as “Administration: 30 μg/mL”.

For Colistin, the “Maximum effective blood concentration” value (Escherichia coli, Shigella, multidrug-resistant Pseudomonas aeruginosa, infectious enteritis) is given as “Administration: 4.4 μg/mL”.
